Paper PMC5578075 (International Journal of Molecular Sciences, 2017)
Where two headings read alike, the source gives them in different places.

Target: T1, acetylcholinesterase from Electrophorus electricus (electric eel) (Electrophorus electricus, UniProt O42275)
T1 construct: purchased Sigma-Aldrich C2888
Assay: biochemical
Protocol: For the further detailed studies, samples of the individual flavonoids previously isolated from C. officinalis flowers were used. The acetylcholinesterase inhibition assay was performed using a spectrophotometric method. […] Additionally minor flavonoids of C. officinalis flowers were included for analysis such as 3-O-(2′′-acetyl)-glucosides, 3-O-(2′′,6′′-di-acetyl)-glucosides, 3-O-(3′′-rhamnosyl)-glucosides, 3-O-(4′′-rhamnosyl)-glucosides and 3-O-rhamnosides (Figure 3).
The acetylcholinesterase inhibition assay was performed using a spectrophotometric microplate assay. The reaction mixture consisted of 235.7 µL of 0.1 M phosphate buffer pH 7.4, 20 µL of a solution of acetylcholinesterase (final concentration 0.1 U/mL in 0.1 M phosphate buffer pH 7.4), 2.7 µL of test compound or plant extract solutions in dimethyl sulfoxide (DMSO). The controls contained the corresponding volume of DMSO of test compound solutions. The enzymatic reaction was initiated by the addition of 1.6 µL of α-naphthyl acetate solution in DMSO. After mixing for 90 s and incubation at 25 °C for 90 s, the reaction was stopped with 20 µL of a 5% solution of sodium dodecyl sulfate (SDS) in water. The color was developed with 20 µL of Fast Blue B salt solution (final concentration 0.17 mM in water). The method was realized in 96-well plates. The microplate was read by a Bio-Rad microplate reader Model 3550 UV. Enzyme activity and inhibition were quantified by determination of the absorbance at 600 nm after the formation of the purple-colored diazonium dye as a percentage. […] The percentage of inhibition was calculated relative to a control sample, for which the anti-acetylcholinesterase activity was assessed under identical conditions, but in the absence of the test compound, using the expression:% Inhibition = {[(ACE − AC) − (ATE − AT)]/(ACE − AC)} × 100% where ACE is the absorbance at 600 nm of the control sample with enzyme; AC is the absorbance at 600 nm of the control sample without enzyme; ATE is the absorbance at 600 nm of the test compound (or plant extract) with enzyme; AT is the absorbance at 600 nm of the test compound (or plant extract) without enzyme.

[1] = individual flavonoids, mean ± SD of three experiments, read-out: Anti-acetylcholinesterase activity, IC50
[2] = Anti-acetylcholinesterase activity, IC50, individual flavonoids, mean ± SD of three experiments

T1 sequence (O42275 24-633): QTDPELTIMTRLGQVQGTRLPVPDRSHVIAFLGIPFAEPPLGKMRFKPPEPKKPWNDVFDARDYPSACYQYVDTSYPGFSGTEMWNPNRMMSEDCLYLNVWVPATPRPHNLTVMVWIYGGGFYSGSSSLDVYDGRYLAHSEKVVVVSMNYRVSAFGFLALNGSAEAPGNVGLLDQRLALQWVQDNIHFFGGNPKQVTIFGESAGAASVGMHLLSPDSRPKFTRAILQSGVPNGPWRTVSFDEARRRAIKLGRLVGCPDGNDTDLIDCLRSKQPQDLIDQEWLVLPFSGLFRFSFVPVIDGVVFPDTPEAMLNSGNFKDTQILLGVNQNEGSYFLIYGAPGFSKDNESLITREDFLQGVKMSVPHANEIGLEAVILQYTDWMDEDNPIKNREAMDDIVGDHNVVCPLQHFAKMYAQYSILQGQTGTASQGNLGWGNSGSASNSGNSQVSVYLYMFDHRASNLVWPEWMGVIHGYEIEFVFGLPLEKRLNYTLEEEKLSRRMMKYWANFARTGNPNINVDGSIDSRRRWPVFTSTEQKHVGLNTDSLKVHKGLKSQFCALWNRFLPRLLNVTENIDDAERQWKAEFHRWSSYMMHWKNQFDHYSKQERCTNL

| Compound | IC50 [1] | other results |
| --- | --- | --- |
| COc1cc(-c2oc3cc(O)cc(O)c3c(=O)c2OC2OC(C)C(O)C(O)C2O)ccc1O (stereo not shown) [Isorhamnetin 3-O-Rhap, isorhamnetin-3-O-rhamnoside] | 74 ± 2.14 µM | – |
| COc1cc(-c2oc3cc(O)cc(O)c3c(=O)c2O)ccc1O [Isorhamnetin, 3,5,7,4′-tetrahydroxy-3′-methoxyflavone] | – | IC50 [2]: 24.2 ± 0.74 µM |
| CC(=O)OC1C(Oc2c(-c3ccc(O)c(O)c3)oc3cc(O)cc(O)c3c2=O)OC(CO)C(O)C1O (stereo not shown) [Quercetin 3-O-(2″-Ac)-Glcp, quercetin-3-O-(2′′-acetyl)-glucoside] | 48 ± 1.2 µM | – |
| COc1cc(-c2oc3cc(O)cc(O)c3c(=O)c2OC2OC(CO)C(O)C(O)C2OC(C)=O)ccc1O (stereo not shown) [Isorhamnetin 3-O-(2″-Ac)-Glcp, isorhamnetin-3-O-(2′′-acetyl)-glucoside] | 70.9 ± 1.84 µM | – |
| COc1cc(-c2oc3cc(O)cc(O)c3c(=O)c2OC2OC(CO)C(O)C(O)C2OC2OC(C)C(O)C(O)C2O)ccc1O (stereo not shown) [Isorhamnetin 3-O-(2″-Rhap)-Glcp, isorhamnetin-3-O-(2′′-rhamnosyl)-glucoside] | 94.3 ± 2.82 µM | – |
| CC1OC(OCC2OC(Oc3c(-c4ccc(O)c(O)c4)oc4cc(O)cc(O)c4c3=O)C(OC3OC(C)C(O)C(O)C3O)C(O)C2O)C(O)C(O)C1O (stereo not shown) [Quercetin 3-O-(2″,6″-di-Rhap)-Glcp, quercetin-3-O-(2′′,6′′-di-rhamnosyl)-glucoside] | 94.9 ± 2.65 µM | – |
| CC1OC(Oc2c(-c3ccc(O)c(O)c3)oc3cc(O)cc(O)c3c2=O)C(O)C(O)C1O (stereo not shown) [Quercetin 3-O-Rhap, quercetin-3-O-rhamnoside] | – | IC50 [2]: 48.8 ± 1.26 µM |
| COc1cc(-c2oc3cc(O)cc(O)c3c(=O)c2O[C@@H]2O[C@H](CO[C@@H]3O[C@@H](C)[C@H](O)[C@@H](O)[C@H]3O)[C@@H](O)[C@H](O)[C@H]2O)ccc1O [Isorhamnetin 3-O-(6″-Rhap)-Glcp, isorhamnetin-3-O-rutinoside] | 97.3 ± 2.91 µM | – |
| COc1cc(-c2oc3cc(O)cc(O)c3c(=O)c2OC2OC(CO)C(O)C(O)C2O)ccc1O (stereo not shown) [Isorhamnetin 3-O-Glcp, isorhamnetin-3-O-glucoside] | 89 ± 2.49 µM | – |
| CC1OC(OC2C(CO)OC(Oc3c(-c4ccc(O)c(O)c4)oc4cc(O)cc(O)c4c3=O)C(O)C2O)C(O)C(O)C1O (stereo not shown) [Quercetin 3-O-(4″-Rhap)-Glcp, quercetin-3-O-(4′′-rhamnosyl)-glucoside] | 70.3 ± 1.9 µM | – |
| COc1cc(-c2oc3cc(O)cc(O)c3c(=O)c2OC2OC(CO)C(OC3OC(C)C(O)C(O)C3O)C(O)C2O)ccc1O (stereo not shown) [Isorhamnetin 3-O-(4″-Rhap)-Glcp, isorhamnetin-3-O-(4′′-rhamnosyl)-glucoside] | 92.1 ± 2.85 µM | – |
| COc1cc(-c2oc3cc(O)cc(O)c3c(=O)c2OC2OC(CO)C(O)C(OC3OC(C)C(O)C(O)C3O)C2O)ccc1O (stereo not shown) [Isorhamnetin 3-O-(3″-Rhap)-Glcp, isorhamnetin-3-O-(3′′-rhamnosyl)-glucoside] | 91.2 ± 2.73 µM | – |
| COc1cc(-c2oc3cc(O)cc(O)c3c(=O)c2OC2OC(COC(C)=O)C(O)C(O)C2OC(C)=O)ccc1O (stereo not shown) [Isorhamnetin 3-O-(2″,6″-di-Ac)-Glcp, isorhamnetin-3-O-(2′′,6′′-di-acetyl)-glucoside] | 51.3 ± 1.53 µM | – |
| C[C@@H]1O[C@@H](OC[C@H]2O[C@@H](Oc3c(-c4ccc(O)c(O)c4)oc4cc(O)cc(O)c4c3=O)[C@H](O)[C@@H](O)[C@@H]2O)[C@H](O)[C@H](O)[C@H]1O [Quercetin 3-O-(6″-Rhap)-Glcp, quercetin-3-O-rutinoside] | – | IC50 [2]: 72.1 ± 2.04 µM |
| CN(C)C(=O)Oc1cccc([N+](C)(C)C)c1 [neostigmine, neostigmine bromide, reference compound] | – | IC50 (AChA, IC50 (anti-acetylcholinesterase activity), total extracts of C. officinalis flowers, mean ± SD of five experiments): 3.36 µM; IC50 [2]: 3.37 µM |
| CC1OC(OC2C(Oc3c(-c4ccc(O)c(O)c4)oc4cc(O)cc(O)c4c3=O)OC(CO)C(O)C2O)C(O)C(O)C1O (stereo not shown) [Quercetin 3-O-(2″-Rhap)-Glcp, quercetin-3-O-(2′′-rhamnosyl)-glucoside] | 71.9 ± 1.94 µM | – |
| CC1OC(OC2C(O)C(CO)OC(Oc3c(-c4ccc(O)c(O)c4)oc4cc(O)cc(O)c4c3=O)C2O)C(O)C(O)C1O (stereo not shown) [Quercetin 3-O-(3″-Rhap)-Glcp, quercetin-3-O-(3′′-rhamnosyl)-glucoside] | 69.1 ± 1.84 µM | – |
| [Cl-].[Na+] [NaCl, reference compound] | – | Anti-acetylcholinesterase activity of the negative control, in words (negative control): inactive |
| O=c1c(O[C@@H]2O[C@H](CO)[C@@H](O)[C@H](O)[C@H]2O)c(-c2ccc(O)c(O)c2)oc2cc(O)cc(O)c12 [Quercetin 3-O-Glcp, quercetin-3-O-glucoside] | – | IC50 [2]: 70.1 ± 1.82 µM |
| CC(=O)OCC1OC(Oc2c(-c3ccc(O)c(O)c3)oc3cc(O)cc(O)c3c2=O)C(O)C(O)C1O (stereo not shown) [Quercetin 3-O-(6″-Ac)-Glcp, quercetin-3-O-(6′′-acetyl)-glucoside] | 45.2 ± 1.12 µM | – |
| COc1cc(-c2oc3cc(O)cc(O)c3c(=O)c2OC2OC(COC(C)=O)C(O)C(O)C2O)ccc1O (stereo not shown) [Isorhamnetin 3-O-(6″-Ac)-Glcp, isorhamnetin-3-O-(6′′-acetyl)-glucoside] | 68.2 ± 1.71 µM | – |
| CC1OC(OC2C(Oc3c(-c4ccc(O)c(O)c4)oc4cc(O)cc(O)c4c3=O)OC(C)C(O)C(O)C2O)C(O)C(O)C1O (stereo not shown) [Quercetin 3-O-(2″-Rhap)-Rhap, quercetin-3-O-(2′′-rhamnosyl)-rhamnoside] | 67.9 ± 1.76 µM | – |
| COc1cc(-c2oc3cc(O)cc(O)c3c(=O)c2OC2OC(COC3OC(C)C(O)C(O)C3O)C(O)C(O)C2OC2OC(C)C(O)C(O)C2O)ccc1O (stereo not shown) [Isorhamnetin 3-O-(2″,6″-di-Rhap)-Glcp, isorhamnetin-3-O-(2′′,6′′-di-rhamnosyl)-glucoside] | 98.5 ± 3.04 µM | – |
| CC(=O)OCC1OC(Oc2c(-c3ccc(O)c(O)c3)oc3cc(O)cc(O)c3c2=O)C(OC(C)=O)C(O)C1O (stereo not shown) [Quercetin 3-O-(2″,6″-di-Ac)-Glcp, quercetin-3-O-(2′′,6′′-di-acetyl)-glucoside] | 36.5 ± 1.02 µM | – |
